How the values were obtained:
Assay type in all cases: cell-based, murine
C2C12 wild-type myotubes = experiment: Fusion index and myotube morphology in wild-type myotubes
SSPN protein [1] = experiment: SSPN protein immunoblot in mdx myotubes; conditions: mdx cells, 48 hours, immunoblot normalized to GAPDH (FIG. 10f)
Procedure: C2C12 cells (American Type Culture Collection) were grown at 37° C. with 5% CO2 in growth media containing DMEM (Gibco) with 20% FBS (Sigma-Aldrich). Upon reaching confluency, the media was replaced with differentiation media containing DMEM with 2% horse serum (Sigma-Aldrich). Conditionally immortalized H2K mdx myoblast cells with a nonsense mutation in exon 23 of dystrophin were a gift from Terrance Partridge, Ph.D. (Children's National Medical Center, Washington, D.C.). Cells were allowed to proliferate on 0.01% gelatin (Sigma-Aldrich) coated plates at 33° C. with 5% CO2 with growth media containing DMEM, 20% HI-FBS (Invitrogen), 2% L-glutamine (Sigma-Aldrich), 2% chicken embryo extract (Accurate Chemical), 1% penicillin-streptomycin (Sigma-Aldrich), and 20U/ml of fresh interferon gamma (Gibco). […] The supernatant was collected, quantified for protein concentration using the DC protein assay (Bio-Rad), and normalized to 2 mg/ml in water and Laemmli sample buffer with a final concentration of 10% glycerol (Sigma-Aldrich), 5% beta-mercaptoethanol (Sigma-Aldrich), 3% sodium dodecyl sulfate (Sigma-Aldrich), and 0.05% bromophenol blue (Sigma-Aldrich). […] Autoradiography films were developed using a SRX-101A tabletop processor (Konica Minolta), scanned to a digital file, and analyzed by densitometry of bands using ImageJ version 1.51s. […]

SSPN protein [2] = experiment: SSPN protein immunoblot in C2C12 wild-type myotubes; conditions: C2C12 cells, 1 μM-10 μM, 48 hours, immunoblot normalized to GAPDH (FIG. 10e)
Procedure: Cells were treated for 48 hours beginning at day 2 of differentiation with DMSO (vehicle control, ATCC), felodipine (Sigma), nilvadipine (Sigma), alloxazine (Sigma), GW5074 (Sigma), methylthioadenosine (Santa Cruz Biotechnology), or ezutromid (Cayman Chemicals) diluted in cell type specific differentiation media at doses listed in the figures. For gene expression studies, each treatment was performed in duplicate. For protein studies, each treatment was performed with single or double replicates. C2C12 murine myotubes treated for 48 hours were lysed using RIPA buffer (Thermo Fisher Scientific) containing a protease inhibitor cocktail (0.6 μg/ml pepstatin A, 0.5 μg/ml aprotinin, 0.5 μg/ml leupeptin, 0.1 mM PMSF, 0.75 mM benzamidine, 5 μM calpain I inhibitor, 5 μM calpeptin). […] The supernatant was collected, quantified for protein concentration using the DC protein assay (Bio-Rad), and normalized to 2 mg/ml in water and Laemmli sample buffer with a final concentration of 10% glycerol (Sigma-Aldrich), 5% beta-mercaptoethanol (Sigma-Aldrich), 3% sodium dodecyl sulfate (Sigma-Aldrich), and 0.05% bromophenol blue (Sigma-Aldrich). […] Autoradiography films were developed using a SRX-101A tabletop processor (Konica Minolta), scanned to a digital file, and analyzed by densitometry of bands using ImageJ version 1.51s. […]

CCOC(=O)C1=C(C)NC(C)=C(C(=O)OC)C1c1cccc(Cl)c1Cl (stereo not drawn) [Felodipine, 5-O-ethyl 3-O-methyl 4-(2,3-dichlorophenyl)-2,6-dimethyl-1,4-dihydropyridine-3,5-dicarboxylate]
fusion index (nuclei in myosin heavy chain positive area/total nuclei in field) (C2C12 wild-type myotubes; wild-type myotubes (FIG. 12c-d)): does not increase fusion index | formation of hypertrophic myotubes (C2C12 wild-type myotubes; wild-type myotubes (FIG. 12e-f)): does induce the formation of hypertrophic wild-type myotubes | SSPN protein levels (SSPN protein [1]): increases sarcospan protein levels | SSPN protein levels (SSPN protein [1]; listed as felodipine): increased SSPN protein levels | SSPN protein levels (SSPN protein [2]): increases sarcospan protein levels | SSPN protein levels (SSPN protein [2]; listed as felodipine): increase in SSPN protein levels
